Experimental data: ChEMBL document CHEMBL1201862, “PubChem BioAssay data set” (2004)
Calls of active or inactive are those of the source.

Experiments:
[1] = target: Photoreceptor-specific nuclear receptor (Homo sapiens, UniProt Q9Y5X4); assay: NR2E3 inverse agonists, dose response, biochemical, TR-FRET (AID 463256); type: functional
Streptokinase A = target: T1, Streptokinase A (Streptococcus pyogenes serotype M1, UniProt P10520); assay: S. pyogenes streptokinase expression inhibitors, potency, dose response, plasminogen activation absorbance, OD405 (AID 1914); type: functional, Streptococcus pyogenes M1 GAS;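 also: secreted streptokinase activity via plasminogen activation per viability signal from cell pellet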
T1 sequence (P10520 whole entry): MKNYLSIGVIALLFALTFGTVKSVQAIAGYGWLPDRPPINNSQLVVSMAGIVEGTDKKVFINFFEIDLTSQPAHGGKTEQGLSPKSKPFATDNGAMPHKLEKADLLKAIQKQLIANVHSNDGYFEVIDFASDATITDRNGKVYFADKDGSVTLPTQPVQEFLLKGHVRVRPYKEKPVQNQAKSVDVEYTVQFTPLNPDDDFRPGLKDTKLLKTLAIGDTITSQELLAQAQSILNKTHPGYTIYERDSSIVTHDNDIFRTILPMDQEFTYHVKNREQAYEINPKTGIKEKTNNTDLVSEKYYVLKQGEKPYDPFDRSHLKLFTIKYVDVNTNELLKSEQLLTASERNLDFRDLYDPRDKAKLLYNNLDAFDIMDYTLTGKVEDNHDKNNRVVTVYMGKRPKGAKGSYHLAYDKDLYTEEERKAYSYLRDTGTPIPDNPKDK

[2] = test system: Streptococcus sp. 'group A'; assay: growth inhibition of control SK(-) GAS strain, dose response, counter-screen for streptokinase expression inhibitor project, luminescence, kanamycin, BacTiterGlo, confirmation (AID 1900); type: functional, organism-based
Streptococcus = assay: Group A Streptococcus viability loss, dose response, counter-screen for streptokinase expression inhibitor project, luminescence, BacTiterGlo (AID 1915); type: functional, organism-based;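 also: potency for reduction of bacterial viability or growth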
[3] = target: Peroxisome proliferator-activated receptor gamma/Nuclear receptor corepressor 2 (Homo sapiens, UniProt P37231+Q9Y618); assay: Counterscreen for NR2E3 inverse agonists: TR-FRET-based biochemical high throughput dose response assay to identify inverse agonists of the interaction between peroxisome proliferator-activated receptor gamma (PPARg) and nuclear receptor co-repressor 2 (NCOR2).; type: functional
[4] = target: 5-hydroxytryptamine receptor 1A (Homo sapiens, UniProt P08908); type: functional
[5] = target: Sphingosine 1-phosphate receptor 2 (Homo sapiens, UniProt O95136); assay: Dose Response Cell Based Assay for Agonists of the S1P2 Receptor of Purchased Analogues. [Related pubchem assays: 729, 843, 854, 736 ]; type: functional
[6] = target: Aryl hydrocarbon receptor (Homo sapiens, UniProt P35869); assay: Luminescence-based cell-based high throughput dose response assay for activators of the Aryl Hydrocarbon Receptor (AHR). [Related pubchem assays: 2796 (Primary screen (AHR activators in singlicate)), 2845 (Confirmation screen (AHR activators in triplicate)), 434939 (Counterscreen (PXR activators in triplicate)), 2804 (Summary (AHR activators))]; type: ADME
Cytochrome P450 2C19 = Cytochrome P450 2C19 (Homo sapiens, UniProt P33261); assay: qHTS Assay for Inhibitors and Substrates of Cytochrome P450 2C19. [Related pubchem assays: 410 ]; type: ADME; settings: read-out: Potency
NADPH oxidase 1 = NADPH oxidase 1 (Homo sapiens, UniProt Q9Y5S8); type: functional, cell-based;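 also: Cell-based assay with luminescence read-out, IC50 derived from inhibitor dose-response curves; intracellular ROS from endogenous NOX1 in intact HT29 colon cancer cells; potency of inhibitors that lower the ROS luminescence signal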
Bcl-2-like protein 10 = Bcl-2-like protein 10 (Homo sapiens, UniProt Q9HD36); assay: Biochemical TR3 FP assay of Bcl-B inhibitor potency, EC50 (AID 1243); type: functional
[7] = target: T2, Zinc finger protein mex-5 (Caenorhabditis elegans, UniProt Q9XUB2); assay: MEX-5/TCR-2 RNA interaction inhibitors, dose response, biochemical, C. elegans, fluorescence polarization (AID 1960)
T2 sequence (Q9XUB2 whole entry): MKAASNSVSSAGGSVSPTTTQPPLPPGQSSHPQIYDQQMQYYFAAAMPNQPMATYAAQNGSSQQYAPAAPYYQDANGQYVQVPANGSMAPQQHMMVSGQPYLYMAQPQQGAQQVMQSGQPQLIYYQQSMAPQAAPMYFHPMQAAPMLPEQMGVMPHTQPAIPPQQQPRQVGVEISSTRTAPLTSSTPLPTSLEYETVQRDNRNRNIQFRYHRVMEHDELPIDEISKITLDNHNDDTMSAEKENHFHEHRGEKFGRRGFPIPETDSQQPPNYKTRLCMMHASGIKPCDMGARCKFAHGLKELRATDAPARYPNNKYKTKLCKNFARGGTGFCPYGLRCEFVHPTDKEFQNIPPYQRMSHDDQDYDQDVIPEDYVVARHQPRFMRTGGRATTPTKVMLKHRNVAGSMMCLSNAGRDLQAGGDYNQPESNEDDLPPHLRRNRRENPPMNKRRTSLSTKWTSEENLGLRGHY

SUMO-activating enzyme [8] = target: T3, SUMO-activating enzyme (Homo sapiens, UniProt Q9UBT2); assay: SUMOylation inhibitor hit validation, confirmation, SUMOylation inhibitor project, biochemical, AlphaScreen (AID 2018); type: functional
SUMO-activating enzyme [9] = target: T3, SUMO-activating enzyme; assay: inhibitors of in vitro SUMOylation cascade, primary screen, biochemical, HTRF, uHTS (AID 2006); type: protein-complex assay
[10] = target: T4, RNA-binding protein pos-1 (Caenorhabditis elegans, UniProt G5EF15); assay: inhibitors of POS-1/mex-3 RNA binding, dose response, biochemical, fluorescence polarization (AID 1964);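 also: purified POS-1 fused to maltose binding protein made in E. coli; potency of compounds blocking POS-1 binding to fluorescent RNA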
T4 sequence (G5EF15 whole entry): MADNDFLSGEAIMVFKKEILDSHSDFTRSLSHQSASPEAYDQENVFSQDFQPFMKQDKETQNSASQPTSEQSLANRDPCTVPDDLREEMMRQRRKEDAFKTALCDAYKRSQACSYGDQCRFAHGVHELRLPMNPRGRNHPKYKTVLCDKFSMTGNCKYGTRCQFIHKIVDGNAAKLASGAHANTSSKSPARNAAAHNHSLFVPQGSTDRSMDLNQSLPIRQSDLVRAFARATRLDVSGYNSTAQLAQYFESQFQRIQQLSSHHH

[11] = enhancers of respiration in Yfh1-depleted yeast, dose response, Friedreich's ataxia, plus single-dose screen (AID 1465); type: functional;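 also: yeast depleted of Yfh1p frataxin homolog grown on glycerol needing respiration; WST-1 tetrazolium dye reduction as measure of cellular dehydrogenase metabolic activity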
[12] = target: Peroxisome proliferator-activated receptor gamma/Nuclear receptor coactivator 2 (Homo sapiens, UniProt P37231); assay: (§1) TR-FRET dose response biochemical High Throughput Screening assay for agonists of the steroid receptor coactivator 2 (SRC-2) recruitment by the peroxisome proliferator-activated receptor gamma (PPAR gamma): non-selective agonists. [Related pubchem assays: 1297, 1032 ]; type: functional
[13] = target: Mothers against decapentaplegic homolog 3 (Homo sapiens, UniProt P84022); assay: SMAD3 transcription factor inhibitors, dose response (AID 715); type: functional
[14] = target: Peroxisome proliferator-activated receptor gamma/Nuclear receptor coactivator 1 (Homo sapiens, UniProt P37231); assay: as §1, with “1 (SRC-1)” for “2 (SRC-2)”, “assays (depositor defined):AID1300, AID1808, AID504735, AID631]” for “assays: 1297, 1032 ]”; type: protein assay
[15] = target: Peroxisome proliferator-activated receptor gamma/Nuclear receptor coactivator 3 (Homo sapiens, UniProt P37231); assay: as §1, with “3 (SRC-3)” for “2 (SRC-2)”, “1301 (Confirmation screen.), 1048 (Primary screen.)]” for “1297, 1032 ]”; type: functional
Estrogen receptor beta [16] = target: T5, Estrogen receptor beta (Homo sapiens, UniProt Q92731);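 also: recombinant ER-beta bound to coactivator SRC1 peptide in presence of estradiol agonist; inhibitors block coactivator peptide binding and lower the FRET signal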
Estrogen receptor beta [17] = target: T5, Estrogen receptor beta; assay: ERβ–SRC-3 coactivator interaction inhibitors, confirmation, orthogonal assay, biochemical, ELISA, streptavidin-HRP readout (AID 1060)
Trypsin = Trypsin (Sus scrofa, UniProt P00761); assay: porcine trypsin inhibitors, dose response, selectivity assay for Rce1 protease inhibitor project, biochemical, quenched peptide fluorescence, cherry-pick (AID 488789)
CAAX prenyl protease 2 = target: T6, CAAX prenyl protease 2 (Saccharomyces cerevisiae S288c, UniProt Q03530); type: biochemical
T6 sequence (Q03530 whole entry): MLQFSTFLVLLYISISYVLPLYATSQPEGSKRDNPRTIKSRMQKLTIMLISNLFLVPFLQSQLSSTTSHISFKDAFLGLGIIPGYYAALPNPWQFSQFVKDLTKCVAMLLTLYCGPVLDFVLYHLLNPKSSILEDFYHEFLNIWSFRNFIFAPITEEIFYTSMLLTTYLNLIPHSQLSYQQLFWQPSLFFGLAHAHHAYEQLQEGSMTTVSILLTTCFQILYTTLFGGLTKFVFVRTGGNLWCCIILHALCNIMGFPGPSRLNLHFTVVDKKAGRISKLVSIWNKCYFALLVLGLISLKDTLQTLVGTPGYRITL

Vero [18] = assay: host cell cytotoxicity of antiviral hits, dose response, cytotoxicity control for West Nile virus antiviral project, secondary assay (AID 1650); type: functional; settings: Chlorocebus sabaeus
[19] = target: T7, DNA repair protein RAD52 homolog (Homo sapiens, UniProt P43351); type: functional, biochemical
T7 sequence (P43351 whole entry): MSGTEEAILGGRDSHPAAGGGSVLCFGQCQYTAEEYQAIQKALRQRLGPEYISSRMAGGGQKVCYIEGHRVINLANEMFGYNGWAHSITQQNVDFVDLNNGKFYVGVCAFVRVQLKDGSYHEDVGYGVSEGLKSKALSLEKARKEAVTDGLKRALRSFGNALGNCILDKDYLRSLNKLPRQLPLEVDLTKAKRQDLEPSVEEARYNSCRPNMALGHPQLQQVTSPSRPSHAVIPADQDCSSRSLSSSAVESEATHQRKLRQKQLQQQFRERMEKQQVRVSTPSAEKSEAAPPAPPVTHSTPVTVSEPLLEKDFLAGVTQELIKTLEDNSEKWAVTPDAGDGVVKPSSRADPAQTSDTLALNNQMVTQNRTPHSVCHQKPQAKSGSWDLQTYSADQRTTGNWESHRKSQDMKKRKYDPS

[20] = target: T8, DNA repair and recombination protein RAD54-like (Homo sapiens, UniProt Q92698); assay: inhibitors of human RAD54 branch migration, confirmation, biochemical, fluorescence, cherry-picked samples, dose series (AID 651657); type: functional
T8 sequence (Q92698 whole entry): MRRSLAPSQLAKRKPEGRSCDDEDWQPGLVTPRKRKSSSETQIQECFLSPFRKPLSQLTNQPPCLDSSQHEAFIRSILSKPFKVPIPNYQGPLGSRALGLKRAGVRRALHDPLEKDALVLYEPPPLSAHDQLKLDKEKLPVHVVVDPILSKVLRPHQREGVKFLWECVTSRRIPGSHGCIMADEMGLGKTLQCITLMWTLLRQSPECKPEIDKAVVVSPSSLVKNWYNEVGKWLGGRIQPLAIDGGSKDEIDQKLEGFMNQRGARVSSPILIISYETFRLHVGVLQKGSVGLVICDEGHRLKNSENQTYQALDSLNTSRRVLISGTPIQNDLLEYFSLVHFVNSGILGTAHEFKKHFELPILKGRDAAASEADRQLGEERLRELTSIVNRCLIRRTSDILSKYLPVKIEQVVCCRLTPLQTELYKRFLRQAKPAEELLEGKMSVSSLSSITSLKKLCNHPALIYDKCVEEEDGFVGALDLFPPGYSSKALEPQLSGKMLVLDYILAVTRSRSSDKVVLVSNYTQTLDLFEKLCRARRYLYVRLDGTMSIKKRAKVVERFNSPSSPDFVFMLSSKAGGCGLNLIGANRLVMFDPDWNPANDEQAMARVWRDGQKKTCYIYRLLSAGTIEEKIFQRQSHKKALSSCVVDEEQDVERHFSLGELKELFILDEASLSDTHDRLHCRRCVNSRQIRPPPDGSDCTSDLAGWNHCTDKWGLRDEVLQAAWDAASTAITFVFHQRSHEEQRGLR

Vero [21] = assay: West Nile virus antiviral activity, cell-based, CPE readout (AID 1621); type: functional; settings: Chlorocebus sabaeus

T5 sequence (Q92731 whole entry): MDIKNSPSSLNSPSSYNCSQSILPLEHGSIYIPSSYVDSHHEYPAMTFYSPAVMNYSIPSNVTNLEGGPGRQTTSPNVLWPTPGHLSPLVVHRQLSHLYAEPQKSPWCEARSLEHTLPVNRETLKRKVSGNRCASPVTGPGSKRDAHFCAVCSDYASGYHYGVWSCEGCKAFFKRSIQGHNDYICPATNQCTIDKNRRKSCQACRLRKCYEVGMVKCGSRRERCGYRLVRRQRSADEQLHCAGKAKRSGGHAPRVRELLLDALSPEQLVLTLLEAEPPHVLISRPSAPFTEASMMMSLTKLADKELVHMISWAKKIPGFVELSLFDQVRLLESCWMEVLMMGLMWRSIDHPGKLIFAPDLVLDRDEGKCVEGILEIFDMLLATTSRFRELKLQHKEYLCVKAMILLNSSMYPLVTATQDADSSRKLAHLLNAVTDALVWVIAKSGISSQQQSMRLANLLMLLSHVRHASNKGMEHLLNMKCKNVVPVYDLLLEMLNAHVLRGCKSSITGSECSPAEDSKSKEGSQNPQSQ
T3 sequence (Q9UBE0 whole entry): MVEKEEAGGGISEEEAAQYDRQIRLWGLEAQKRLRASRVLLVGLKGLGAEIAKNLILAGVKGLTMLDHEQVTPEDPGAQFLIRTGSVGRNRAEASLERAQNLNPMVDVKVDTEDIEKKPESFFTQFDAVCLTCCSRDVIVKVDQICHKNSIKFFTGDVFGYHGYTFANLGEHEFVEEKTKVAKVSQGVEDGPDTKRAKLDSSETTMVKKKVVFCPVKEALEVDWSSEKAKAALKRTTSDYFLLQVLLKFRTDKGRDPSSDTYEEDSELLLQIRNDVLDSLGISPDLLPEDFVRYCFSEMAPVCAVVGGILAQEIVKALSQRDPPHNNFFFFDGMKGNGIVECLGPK
T3 sequence (Q9UBT2 whole entry): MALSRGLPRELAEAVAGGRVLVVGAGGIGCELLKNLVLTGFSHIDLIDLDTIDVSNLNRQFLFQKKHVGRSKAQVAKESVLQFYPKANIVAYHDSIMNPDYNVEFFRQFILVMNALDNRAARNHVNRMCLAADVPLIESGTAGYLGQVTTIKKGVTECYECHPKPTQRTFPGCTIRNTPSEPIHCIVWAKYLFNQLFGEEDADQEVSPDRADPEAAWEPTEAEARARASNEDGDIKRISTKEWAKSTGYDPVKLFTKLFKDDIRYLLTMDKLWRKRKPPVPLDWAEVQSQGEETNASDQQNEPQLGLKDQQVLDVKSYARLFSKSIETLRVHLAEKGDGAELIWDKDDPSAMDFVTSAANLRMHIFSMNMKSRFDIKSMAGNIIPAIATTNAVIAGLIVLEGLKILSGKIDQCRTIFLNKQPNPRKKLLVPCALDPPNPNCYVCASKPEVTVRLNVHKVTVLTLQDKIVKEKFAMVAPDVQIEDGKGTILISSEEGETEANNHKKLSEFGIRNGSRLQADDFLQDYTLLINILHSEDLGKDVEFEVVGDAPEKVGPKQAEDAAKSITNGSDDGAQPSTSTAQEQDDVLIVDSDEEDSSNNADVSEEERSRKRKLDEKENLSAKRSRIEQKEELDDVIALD
Sphingosine 1-phosphate receptor 2, sequence (O95136 whole entry): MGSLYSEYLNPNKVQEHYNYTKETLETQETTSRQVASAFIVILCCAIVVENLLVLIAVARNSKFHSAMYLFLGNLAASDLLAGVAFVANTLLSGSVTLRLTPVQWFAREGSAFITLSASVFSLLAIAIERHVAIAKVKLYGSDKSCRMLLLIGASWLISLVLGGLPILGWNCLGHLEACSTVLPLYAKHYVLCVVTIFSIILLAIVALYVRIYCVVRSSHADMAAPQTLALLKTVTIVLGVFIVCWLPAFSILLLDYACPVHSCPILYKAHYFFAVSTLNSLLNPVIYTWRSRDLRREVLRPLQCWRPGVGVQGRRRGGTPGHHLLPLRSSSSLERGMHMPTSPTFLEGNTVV
NADPH oxidase 1, sequence (Q9Y5S8 whole entry): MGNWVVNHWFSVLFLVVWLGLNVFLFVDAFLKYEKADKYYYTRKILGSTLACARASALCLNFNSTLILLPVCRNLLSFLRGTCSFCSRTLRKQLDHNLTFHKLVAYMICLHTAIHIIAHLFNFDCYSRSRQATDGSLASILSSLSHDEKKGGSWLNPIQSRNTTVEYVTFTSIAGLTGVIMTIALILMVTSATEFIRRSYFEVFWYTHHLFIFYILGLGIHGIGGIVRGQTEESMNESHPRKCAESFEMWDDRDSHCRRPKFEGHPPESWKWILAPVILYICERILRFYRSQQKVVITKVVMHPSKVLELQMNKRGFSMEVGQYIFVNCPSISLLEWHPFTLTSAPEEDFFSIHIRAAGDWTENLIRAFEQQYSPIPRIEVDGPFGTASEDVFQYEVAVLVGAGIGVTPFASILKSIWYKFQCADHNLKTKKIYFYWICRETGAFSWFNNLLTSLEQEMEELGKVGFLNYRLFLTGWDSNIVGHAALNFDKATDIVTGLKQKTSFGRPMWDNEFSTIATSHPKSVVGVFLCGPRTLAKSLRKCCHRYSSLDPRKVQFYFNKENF
Bcl-2-like protein 10, sequence (Q9HD36 whole entry): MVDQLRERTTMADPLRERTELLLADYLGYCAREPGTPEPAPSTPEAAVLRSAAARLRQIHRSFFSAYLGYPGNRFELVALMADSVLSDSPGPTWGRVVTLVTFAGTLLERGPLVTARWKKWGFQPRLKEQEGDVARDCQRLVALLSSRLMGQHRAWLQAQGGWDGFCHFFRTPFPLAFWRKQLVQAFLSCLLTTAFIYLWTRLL
Mothers against decapentaplegic homolog 3, sequence (P84022 whole entry): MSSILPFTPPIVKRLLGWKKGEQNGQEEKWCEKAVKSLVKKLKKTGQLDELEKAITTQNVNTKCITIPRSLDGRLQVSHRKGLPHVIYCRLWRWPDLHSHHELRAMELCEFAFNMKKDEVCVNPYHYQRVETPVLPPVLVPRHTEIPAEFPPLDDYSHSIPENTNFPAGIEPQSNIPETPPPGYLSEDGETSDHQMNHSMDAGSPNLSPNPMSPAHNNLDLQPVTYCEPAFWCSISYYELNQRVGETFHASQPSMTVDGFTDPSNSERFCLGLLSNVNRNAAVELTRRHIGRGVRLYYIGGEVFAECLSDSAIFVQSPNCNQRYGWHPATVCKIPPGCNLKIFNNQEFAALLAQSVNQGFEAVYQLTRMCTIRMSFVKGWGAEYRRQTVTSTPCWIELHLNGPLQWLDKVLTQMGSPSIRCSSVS
Trypsin, sequence (P00761 whole entry): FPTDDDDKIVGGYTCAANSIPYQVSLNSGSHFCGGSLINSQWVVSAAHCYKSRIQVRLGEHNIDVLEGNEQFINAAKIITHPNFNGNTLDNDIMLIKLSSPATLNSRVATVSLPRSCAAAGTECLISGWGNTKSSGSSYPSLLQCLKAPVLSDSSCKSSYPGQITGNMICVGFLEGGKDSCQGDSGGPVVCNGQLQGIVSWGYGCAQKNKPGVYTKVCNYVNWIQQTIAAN
Photoreceptor-specific nuclear receptor, sequence (Q9Y5X4 whole entry): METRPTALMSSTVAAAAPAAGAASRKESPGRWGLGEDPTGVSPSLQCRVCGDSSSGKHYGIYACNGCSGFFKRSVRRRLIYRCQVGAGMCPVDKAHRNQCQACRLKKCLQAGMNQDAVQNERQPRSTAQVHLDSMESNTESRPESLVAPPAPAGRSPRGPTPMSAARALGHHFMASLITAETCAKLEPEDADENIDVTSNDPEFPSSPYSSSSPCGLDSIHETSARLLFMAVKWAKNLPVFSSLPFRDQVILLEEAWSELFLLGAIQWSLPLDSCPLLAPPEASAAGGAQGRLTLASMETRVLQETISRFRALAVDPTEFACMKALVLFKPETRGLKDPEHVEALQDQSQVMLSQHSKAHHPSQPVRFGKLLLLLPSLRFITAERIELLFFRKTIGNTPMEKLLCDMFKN
Aryl hydrocarbon receptor, sequence (P35869 whole entry): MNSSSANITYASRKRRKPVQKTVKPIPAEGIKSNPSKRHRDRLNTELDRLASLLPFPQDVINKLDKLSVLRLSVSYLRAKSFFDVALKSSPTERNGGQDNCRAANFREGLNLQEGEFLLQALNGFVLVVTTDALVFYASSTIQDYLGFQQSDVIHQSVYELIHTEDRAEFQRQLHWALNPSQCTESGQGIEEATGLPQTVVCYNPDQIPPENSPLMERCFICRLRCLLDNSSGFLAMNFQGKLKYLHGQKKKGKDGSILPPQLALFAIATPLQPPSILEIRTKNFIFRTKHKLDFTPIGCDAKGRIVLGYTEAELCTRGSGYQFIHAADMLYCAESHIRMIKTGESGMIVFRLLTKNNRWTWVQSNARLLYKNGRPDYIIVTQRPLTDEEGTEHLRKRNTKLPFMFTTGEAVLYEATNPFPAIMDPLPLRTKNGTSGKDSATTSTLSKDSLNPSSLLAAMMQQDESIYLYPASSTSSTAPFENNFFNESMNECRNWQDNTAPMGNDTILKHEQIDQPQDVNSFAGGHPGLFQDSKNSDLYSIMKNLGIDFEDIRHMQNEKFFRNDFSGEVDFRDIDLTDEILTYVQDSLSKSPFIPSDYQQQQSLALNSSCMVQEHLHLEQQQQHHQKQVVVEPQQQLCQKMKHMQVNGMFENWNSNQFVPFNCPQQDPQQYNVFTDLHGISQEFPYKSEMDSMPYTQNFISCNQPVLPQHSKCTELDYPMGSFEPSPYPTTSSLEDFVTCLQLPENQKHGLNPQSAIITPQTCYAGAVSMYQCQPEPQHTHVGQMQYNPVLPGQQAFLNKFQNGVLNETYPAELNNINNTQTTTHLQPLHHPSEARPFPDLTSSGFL
5-hydroxytryptamine receptor 1A, sequence (P08908 whole entry): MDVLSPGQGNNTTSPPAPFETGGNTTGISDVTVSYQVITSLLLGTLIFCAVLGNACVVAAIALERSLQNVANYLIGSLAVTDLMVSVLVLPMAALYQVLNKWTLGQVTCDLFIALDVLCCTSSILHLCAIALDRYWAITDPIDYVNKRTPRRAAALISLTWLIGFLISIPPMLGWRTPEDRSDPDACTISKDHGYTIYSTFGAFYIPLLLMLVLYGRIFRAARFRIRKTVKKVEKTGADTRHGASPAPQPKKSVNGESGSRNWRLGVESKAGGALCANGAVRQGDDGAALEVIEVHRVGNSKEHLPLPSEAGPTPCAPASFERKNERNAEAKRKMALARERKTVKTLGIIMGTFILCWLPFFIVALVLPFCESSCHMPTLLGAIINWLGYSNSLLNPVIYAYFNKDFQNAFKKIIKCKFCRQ

O=C(COc1ccc(Cl)cc1Cl)Nc1ccc(-c2ccc(N3CCOCC3)nn2)cc1
IC50 [1]: 1.43 µM (active)
EC50 (Streptokinase A): > 150 µM (not active)
EC50 [2]: > 150 µM (not active)
EC50 (Streptococcus): > 150 µM (not active)
IC50 [3]: 1.51 µM (active)

Cc1c(CN2CCN(c3cccc(C(F)(F)F)c3)CC2)c(=O)n(-c2ccccc2)n1C
EC50 [4]: > 50 µM (not active)

Cc1cc(C(=O)CN2C(=O)C(=O)N(C3CCCC3)C2=O)c(C)n1Cc1ccccc1
EC50 [5]: > 30 µM (not active)

Cc1nc(C)c(C(=O)N/N=C/c2c[nH]c3ccccc23)s1
EC50 [6]: > 91.7 µM (not active)

CC(C)C[C@H](NC(=O)[C@@H](NC(=O)N[C@@H](Cc1ccccc1)C(=O)O)[C@H]1CCN=C(N)N1)C(=O)N[C@H](C=O)Cc1ccccc1
AC50 (Cytochrome P450 2C19): 10 µM (inconclusive)

C=C(NNc1c(Cl)c(Cl)nc(C(=O)O)c1Cl)c1ccc2c(c1)OCCO2
IC50 (NADPH oxidase 1): > 17 µM (not active)

Nc1ccc(Oc2ccc(N)c(N)c2)cc1N
EC50 (Bcl-2-like protein 10): 5.37 µM (active)

COc1cc([N+](=O)[O-])cc(/C=N/NC(=O)CC#N)c1O
EC50 [7]: > 300 µM (inconclusive)
IC50 (SUMO-activating enzyme [8]): 1.15 µM (active)
IC50 (SUMO-activating enzyme [9]): 8.76 µM (active)
EC50 [10]: > 300 µM (inconclusive)
EC50 [11]: > 100 µM (active)

CCN1CCCC1CNC(=O)CSc1cc(=O)n(C)c2cc(Cl)ccc12 (stereo not drawn)
EC50 [12]: > 79.4 µM (not active)
IC50 [13]: 8.7 µM (active)
EC50 [14]: > 79.4 µM (inactive)
EC50 [15]: > 79.4 µM (not active)

O=C(c1cc2ncc(Br)cn2n1)N1CCOCC1
IC50 (Estrogen receptor beta [16]): 9.16 µM (active)
IC50 (Estrogen receptor beta [17]): 23 µM (not active)

CCN(CC)CCCNC(=O)c1cc2c(-c3cccc(OC)c3)nn(C)c2s1
AC50 (Trypsin): 9.95 µM (active)
AC50 (CAAX prenyl protease 2): 77.8 µM (active)
CC50 (Vero [18]): > 100 µM (active)
AC50 [19]: 6.07 µM (active)
AC50 [20]: 34.1 µM (active)
IC50 (Vero [21]): 19.9 µM (active)
